Data on 2 compounds can be found in US9169315B2, “Heparin cofactor II fragments with anti-inflammatory and anti-coagulant activity” (XIMMUNE AB, priority 2009, dated 2015).

Like-named read-outs stand apart in the source and are kept apart here. No end group written: not given here.

The test system of one data set is P. aeruginosa. Type of data set: cell-based, Pseudomonas aeruginosa. As for the experimental part: (§1) MIC assay was carried out by a microtiter broth dilution method as previously described in the NCSLA guidelines (Wiegand, I., Hilpert, K. & Hancock, R. E. Agar and broth dilution methods to determine the minimal inhibitory concentration (MIC) of antimicrobial substances. Nat Protoc 3, 163-175 (2008)). In brief, fresh overnight colonies were suspended to a turbidity of 0.5 units and further diluted in Mueller-Hinton broth (Becton Dickinson). For determination of MIC, peptides were dissolved in water at concentration 10 times higher than the required range by serial dilutions from a stock solution. Ten μl of each concentration was added to each corresponding well of a 96-well microtiter plate (polypropylene, Costar Corp.) and 90 μl of bacteria (1×10^5) in MH medium added. The plate was incubated at 37° C. for 16-18 h. MIC was taken as the lowest concentration where no visual growth of bacteria was detected.

For a further data set, the system named is E. faecalis. Put plainly: MIC, microtiter broth dilution. Format: cell-based. As to conditions: E. faecalis Clinical isolate 2374. As for the experimental part: as §1
In general terms: In broth dilution the organism is exposed to a series of concentrations in liquid medium.

The test system of a further data set is S. pyogenes. Type of data set: cell-based. To be noted: S. pyogenes AP1. How it is done: as §1
For the next data set, the system named is S. pneumoniae. Format: cell-based. How it is done: as §1
The next data set concerns E. coli. Format: cell-based, Escherichia coli. As for the experimental part:
as §1

A further data set concerns S. aureus. Type of data set: cell-based, Staphylococcus aureus. As for the experimental part:
as §1

For a further data set, the system named is human blood. To be noted: corresponding number for LL-37 (Malmsten et al., in manuscript); cited from earlier work.

The MIC is the smallest concentration in the dilution series that meets the test's criterion for growth inhibition. For the compound “ILRWPWWPWRRK-NH2 [Omiganan, reference compound]”, the MIC with P. aeruginosa (P. aeruginosa ATCC 27853) was 160 µM; with P. aeruginosa (P. aeruginosa Clinical isolate 10.5) it was 40 µM; with P. aeruginosa (P. aeruginosa Clinical isolate 13.2), 40 µM; with P. aeruginosa (P. aeruginosa Clinical isolate 23.1), 40 µM; in the data set with P. aeruginosa (P. aeruginosa Clinical isolate 27.1) it was over 160 µM; against P. aeruginosa (P. aeruginosa Clinical isolate 51.1), 80 µM. Besides, the MIC stood at 20 µM against P. aeruginosa (P. aeruginosa Clinical isolate 62.1); 20 µM in the data set on P. aeruginosa (P. aeruginosa Clinical isolate 15159); 20 µM in the data set on P. aeruginosa (P. aeruginosa Clinical isolate 18488); 160 µM against E. faecalis; 5 µM against S. pyogenes; 1.25 µM in the data set with S. pneumoniae (S. pneumoniae Clinical isolate I-95). Besides, the MIC against S. pneumoniae (S. pneumoniae Clinical isolate I-104) is 160 µM; in the data set on S. pneumoniae (S. pneumoniae Clinical isolate PJ1354), 10 µM; against S. pneumoniae (S. pneumoniae D39) it was 5 µM; with S. pneumoniae (S. pneumoniae TIGR4), 2.5 µM; against E. coli, 20 µM; in the data set on E. coli (E. coli Clinical isolate 47.1) it was 20 µM. The MIC in the data set with E. coli (E. coli Clinical isolate 49.1) was 10 µM; against S. aureus (S. aureus ATCC 29213), 10 µM; against S. aureus (S. aureus Clinical isolate 1086), 10 µM; against S. aureus (S. aureus Clinical isolate 1088) it was 20 µM; against S. aureus (S. aureus Clinical isolate 1090), 80 µM; with S. aureus (S. aureus Clinical isolate 14312), 20 µM. In the data set with S. aureus (S. aureus Clinical isolate 16065), this compound yielded an MIC of 5 µM.

As for `CC[C@H](C)[C@H](NC(=O)[C@H](CCCCN)NC(=O)[C@H](CCC(=O)O)NC(=O)[C@H](CCCCN)NC(=O)[C@H](CO)NC(=O)[C@H](CCCCN)NC(=O)[C@H](CCCNC(=N)N)NC(=O)[C@H](Cc1ccccc1)NC(=O)[C@H](Cc1ccccc1)NC(=O)[C@H](CC(=O)O)NC(=O)CNC(=O)[C@H](CC(C)C)NC(=O)[C@@H](N)CC(C)C)C(=O)NCC(=O)N[C@@H](CCCCN)C(=O)N[C@@H](CCC(=O)O)C(=O)N[C@@H](Cc1ccccc1)C(=O)N[C@@H](CCCCN)C(=O)N[C@@H](CCCNC(=N)N)C(=O)N[C@H](C(=O)N[C@H](C(=O)N[C@@H](CCC(N)=O)C(=O)N[C@@H](CCCNC(=N)N)C(=O)N[C@H](C(=O)N[C@@H](CCCCN)C(=O)N[C@@H](CC(=O)O)C(=O)N[C@@H](Cc1ccccc1)C(=O)N[C@@H](CC(C)C)C(=O)N[C@@H](CCCNC(=N)N)C(=O)N[C@@H](CC(N)=O)C(=O)N[C@@H](CC(C)C)C(=O)N[C@H](C(=O)N1CCC[C@H]1C(=O)N[C@@H](CCCNC(=N)N)C(=O)N[C@H](C(=O)N[C@@H](CCC(=O)O)C(=O)N[C@@H](CO)C(=O)O)[C@@H](C)O)C(C)C)[C@@H](C)CC)C(C)C)[C@@H](C)CC` [LL-37], in the data set with human blood, the “Accompanying hemolysis in infected human blood” value is recorded as about 8%.
